Results reported in ChEMBL document CHEMBL1201862, “PubChem BioAssay data set” (2004).
Activity calls are given as the source filed them.

Key:
[1] = target: Induced myeloid leukemia cell differentiation protein Mcl-1 (Homo sapiens, UniProt Q07820); assay: MCL1-BIM BH3 interaction inhibitors, dose response, biochemical, fluorescence polarization, BIM-BH3 peptide, 1536-well (AID 2217)
[2] = target: T1, Small ubiquitin-related modifier 1 (Homo sapiens, UniProt P63165); assay: inhibitors of SUMO1 partner interactions, dose response, biochemical, FRET (AID 624383); format: functional; conditions: read-out: IC50_Mean
[3] = target: DNA (cytosine-5)-methyltransferase 1 (Homo sapiens, UniProt P26358); assay: DNMT1 methyltransferase inhibitors, confirmation, biochemical, fluorescent molecular beacon (AID 602386); format: functional
Albumin = Albumin (Bos taurus, UniProt P02769); assay: Counterscreen for inhibitors of T-cell receptor (TCR)-CD3 interaction: Fluorescence-based biochemical high throughput dose response assay to identify inhibitors of T-cell receptor (TCR)-CD3 interaction using a TAMRA-labeled BSA probe.; format: functional
Bcl-2-like protein 1 = Bcl-2-like protein 1 (Homo sapiens, UniProt Q07817); assay: BCL-XL inhibitors, dose response, selectivity assay for MCL1 inhibitor project, biochemical, fluorescence polarization, 1536-well (AID 2218)
Genome polyprotein = Genome polyprotein (Hepatitis C virus, UniProt Q2Q167); assay: HCV core protein dimerization inhibitors, dose response, biochemical, TR-FRET (AID 2159); design: species or system Hepacivirus hominis;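 also: blocks dimerization of HCV core protein measured by TR-FRET between tagged core106 pairs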
[4] = target: T1, Small ubiquitin-related modifier 1; assay: inhibitors of SUMO1 peptide binding, dose response, biochemical, fluorescence polarization, uHTS hits (AID 624382); format: functional; conditions: read-out: IC50_Mean
[5] = Luminescence Cell-Based Dose Retest to Confirm Inhibitors of Cancer Stem Cells. [Related pubchem assays (depositor defined):AID2717, AID2721]; format: functional; conditions: Homo sapiens
[6] = growth suppression of PTEN-null colon cells, dose response, cell-based, HCT116 PTEN knockout (AID 1047); format: functional;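 also: HCT116 colon tumor cells with PTEN knocked out; cells exposed to compound for 60 hours before readout; potency for loss of cell viability measured by luminescence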
[7] = ADAM10 inhibitors, peptide cleavage, dose response, biochemical, QFRET (AID 743254);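 also: ADAM10 enzyme with the DM2 quenched FRET peptide as substrate; EDANS fluorescence gain as the protease cuts the substrate; inhibitor potency against ADAM10 proteolytic activity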
[8] = growth suppression of beta-catenin-knockout colon cells, dose response, cell-based, HCT116, human colon tumor (AID 1045); format: functional;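 also: HCT116 colon tumor cells with beta catenin knocked out; cells exposed to compound for 60 hours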
[9] = target: Disintegrin and metalloproteinase domain-containing protein 17 (Homo sapiens, UniProt P78536); assay: ADAM17 protease inhibitors, dose response, counter-screen for ADAM10 exosite inhibitor project, biochemical, quenched FRET substrate (AID 743253)
[10] = target: T2, Sphingosine 1-phosphate receptor 2 (Homo sapiens, UniProt O95136); assay: Dose Response Cell Based Assay for Agonists of the S1P2 Receptor. [Related pubchem assays: 729, 736, 843 ]; format: functional
[11] = target: E3 ubiquitin-protein ligase Mdm2 (Homo sapiens, UniProt Q00987); assay: enhancers of MDM2-luciferase reporter signal, concentration-effect titration, project on inhibitors of MDM2 ubiquitin ligase, cellular assay, luminescent readout, 384-well plate format (AID 1394); format: functional;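 also: MDM2 E3 inhibitors raise luminescence so EC50 is for signal enhancement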
[12] = target: T3, Eukaryotic translation initiation factor 2-alpha kinase 3 (Homo sapiens, UniProt Q9NZJ5); assay: Counterscreen assay for PERK inhibitors: Dose response cell-based high throughput screening assay to measure inhibition of PERK at 6 hours. [Related pubchem assays: 1522, 1416 ]; format: functional
T3 sequence (Q9NZJ5 whole entry): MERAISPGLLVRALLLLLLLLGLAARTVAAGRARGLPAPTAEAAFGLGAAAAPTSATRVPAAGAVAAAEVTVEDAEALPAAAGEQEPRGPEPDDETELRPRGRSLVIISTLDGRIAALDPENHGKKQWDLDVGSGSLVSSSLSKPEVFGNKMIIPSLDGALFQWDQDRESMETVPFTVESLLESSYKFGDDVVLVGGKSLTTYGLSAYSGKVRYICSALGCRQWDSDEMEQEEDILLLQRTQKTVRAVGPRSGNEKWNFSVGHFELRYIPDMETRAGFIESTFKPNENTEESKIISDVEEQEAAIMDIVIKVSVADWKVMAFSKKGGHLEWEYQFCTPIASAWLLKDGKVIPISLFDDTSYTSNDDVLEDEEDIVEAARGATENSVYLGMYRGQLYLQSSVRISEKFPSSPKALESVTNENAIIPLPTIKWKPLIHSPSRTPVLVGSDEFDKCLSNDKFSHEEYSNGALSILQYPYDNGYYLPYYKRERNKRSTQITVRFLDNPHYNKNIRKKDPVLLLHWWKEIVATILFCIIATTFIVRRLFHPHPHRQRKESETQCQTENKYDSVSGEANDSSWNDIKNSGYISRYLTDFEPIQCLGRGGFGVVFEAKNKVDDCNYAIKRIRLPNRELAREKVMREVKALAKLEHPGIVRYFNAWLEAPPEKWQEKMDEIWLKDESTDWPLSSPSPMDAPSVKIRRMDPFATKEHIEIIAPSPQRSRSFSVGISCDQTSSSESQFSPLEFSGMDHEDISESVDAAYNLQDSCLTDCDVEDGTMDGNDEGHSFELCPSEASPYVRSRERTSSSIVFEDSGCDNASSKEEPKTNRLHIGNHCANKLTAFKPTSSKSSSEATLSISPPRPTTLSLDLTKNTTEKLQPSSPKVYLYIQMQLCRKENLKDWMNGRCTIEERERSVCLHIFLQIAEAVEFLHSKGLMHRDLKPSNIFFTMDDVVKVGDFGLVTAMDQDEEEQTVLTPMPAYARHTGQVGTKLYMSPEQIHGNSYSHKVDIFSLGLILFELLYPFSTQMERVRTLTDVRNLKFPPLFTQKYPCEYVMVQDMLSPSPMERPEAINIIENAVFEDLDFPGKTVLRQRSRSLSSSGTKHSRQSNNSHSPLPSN

[13] = target: T3, Eukaryotic translation initiation factor 2-alpha kinase 3; assay: Dose response cell-based high-throughput screening assay to measure PERK inhibition. [Related pubchem assays: 1416 ]; format: functional
[14] = THP-1 cell cytotoxicity, dose response, cytotoxicity control for non-replicating M. tuberculosis project (AID 489025); format: functional
[15] = M. tuberculosis growth inhibition, HTS (AID 449762); format: functional
[16] = target: T4, Tyrosine-protein phosphatase non-receptor type 7 (Homo sapiens, UniProt P35236); assay: inhibitors of human HePTP phosphatase, […], biochemical, absorbance, leukemia target (AID 521); format: functional
T4 sequence (P35236 whole entry): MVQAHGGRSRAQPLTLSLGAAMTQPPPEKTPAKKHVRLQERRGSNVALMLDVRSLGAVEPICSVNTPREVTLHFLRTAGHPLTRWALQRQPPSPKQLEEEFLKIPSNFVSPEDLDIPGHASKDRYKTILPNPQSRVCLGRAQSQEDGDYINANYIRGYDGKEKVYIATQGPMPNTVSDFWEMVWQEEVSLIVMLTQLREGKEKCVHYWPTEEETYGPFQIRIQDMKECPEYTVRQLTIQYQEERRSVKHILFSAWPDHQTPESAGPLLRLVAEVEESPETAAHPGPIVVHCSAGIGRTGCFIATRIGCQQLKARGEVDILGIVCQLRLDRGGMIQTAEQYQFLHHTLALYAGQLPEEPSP

[17] = target: Luciferin 4-monooxygenase (Photinus pyralis, UniProt P08659); assay: Counter Screen for Luciferase-based Assay Positives. [Related pubchem assays: 620, 618, 411 ]
HT-1080 = assay: cytotoxicity in HT1080 fibrosarcoma cells, cell-based, fluorescence readout (AID 620); format: functional; conditions: Homo sapiens
[18] = target: T2, Sphingosine 1-phosphate receptor 2; assay: Dose Response Cell Based Assay for Antagonists of the S1P2 Receptor. [Related pubchem assays: 856, 736 ]; format: functional
[19] = target: T5, Sphingosine 1-phosphate receptor 4 (Homo sapiens, UniProt O95977); assay: Late stage fluorescence dose response cell-based screening assay for antagonists of the Sphingosine 1-Phosphate Receptor 4 (S1P4). [Related pubchem assays: 1524 (Confirmation screen (S1P4 antagonists).), 1510 (Primary screen (S1P4 antagonists).), 1853 (Summary AID (S1P4 antagonists).), 1692 (Dose response screen (S1P4 antagonists).)]; format: functional
T5 sequence (O95977 whole entry): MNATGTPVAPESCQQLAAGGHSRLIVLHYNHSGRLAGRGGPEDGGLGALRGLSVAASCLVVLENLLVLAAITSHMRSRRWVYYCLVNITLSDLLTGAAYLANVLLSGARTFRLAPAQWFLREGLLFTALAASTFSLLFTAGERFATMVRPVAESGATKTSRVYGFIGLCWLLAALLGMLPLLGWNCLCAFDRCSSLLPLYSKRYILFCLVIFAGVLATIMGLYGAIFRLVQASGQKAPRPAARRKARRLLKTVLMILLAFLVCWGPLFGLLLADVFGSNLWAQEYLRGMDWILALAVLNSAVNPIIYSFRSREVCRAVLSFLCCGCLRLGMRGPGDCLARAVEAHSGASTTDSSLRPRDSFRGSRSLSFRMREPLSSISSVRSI

[20] = target: T6, Replicative DNA helicase DnaB (Mycobacterium tuberculosis, UniProt P9WMR3); assay: DnaB intein splicing inhibitors, dose response, biochemical, cell-free fluorescence (AID 449749); format: functional
T6 sequence (P9WMR3 whole entry): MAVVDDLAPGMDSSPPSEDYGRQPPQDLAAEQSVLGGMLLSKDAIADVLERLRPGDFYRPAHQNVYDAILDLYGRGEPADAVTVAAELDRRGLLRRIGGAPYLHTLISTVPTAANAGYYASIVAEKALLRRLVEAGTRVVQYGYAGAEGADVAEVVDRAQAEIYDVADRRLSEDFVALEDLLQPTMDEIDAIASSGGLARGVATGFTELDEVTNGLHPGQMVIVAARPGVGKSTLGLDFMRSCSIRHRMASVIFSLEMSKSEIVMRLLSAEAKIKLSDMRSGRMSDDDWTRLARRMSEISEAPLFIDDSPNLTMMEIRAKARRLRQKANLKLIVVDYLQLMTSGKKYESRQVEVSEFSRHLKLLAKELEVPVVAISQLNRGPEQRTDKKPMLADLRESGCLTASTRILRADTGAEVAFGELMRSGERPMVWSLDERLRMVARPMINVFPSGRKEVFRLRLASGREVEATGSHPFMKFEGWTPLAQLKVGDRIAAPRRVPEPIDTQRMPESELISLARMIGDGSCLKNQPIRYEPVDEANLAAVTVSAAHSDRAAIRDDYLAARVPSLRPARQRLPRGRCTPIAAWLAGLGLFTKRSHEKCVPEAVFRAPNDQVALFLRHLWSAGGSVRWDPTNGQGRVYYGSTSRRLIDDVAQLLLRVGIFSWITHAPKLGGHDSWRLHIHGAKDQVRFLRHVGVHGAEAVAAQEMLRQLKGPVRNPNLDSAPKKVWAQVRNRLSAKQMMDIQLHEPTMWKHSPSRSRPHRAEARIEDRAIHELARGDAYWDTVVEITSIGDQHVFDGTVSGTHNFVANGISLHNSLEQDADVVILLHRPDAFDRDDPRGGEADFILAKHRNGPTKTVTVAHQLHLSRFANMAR

[21] = target: Sphingosine 1-phosphate receptor 1 (Homo sapiens, UniProt P21453); format: functional;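 also: Tango beta-arrestin reporter U2OS cells stimulated with S1P near its EC80; inhibitor potency meaning antagonism of receptor activation by the natural agonist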
[22] = target: T5, Sphingosine 1-phosphate receptor 4; assay: Fluorescence dose response cell-based high throughput screening assay for antagonists of the Sphingosine 1-Phosphate Receptor 4 (S1P4). [Related pubchem assays: 1524 (Confirmation in triplicates.), 1510 (Primary screen.)]; format: functional
Protein RecA = target: T7, Protein RecA (Mycobacterium tuberculosis, UniProt P9WHJ3); assay: Fluorescence Cell-Free Homogeneous Dose Retest to Identify Inhibitors of RecA-Intein Splicing Activity. [Related pubchem assays (depositor defined):AID2097, AID2223, AID489010, AID492950]; format: functional
T7 sequence (P9WHJ3 whole entry): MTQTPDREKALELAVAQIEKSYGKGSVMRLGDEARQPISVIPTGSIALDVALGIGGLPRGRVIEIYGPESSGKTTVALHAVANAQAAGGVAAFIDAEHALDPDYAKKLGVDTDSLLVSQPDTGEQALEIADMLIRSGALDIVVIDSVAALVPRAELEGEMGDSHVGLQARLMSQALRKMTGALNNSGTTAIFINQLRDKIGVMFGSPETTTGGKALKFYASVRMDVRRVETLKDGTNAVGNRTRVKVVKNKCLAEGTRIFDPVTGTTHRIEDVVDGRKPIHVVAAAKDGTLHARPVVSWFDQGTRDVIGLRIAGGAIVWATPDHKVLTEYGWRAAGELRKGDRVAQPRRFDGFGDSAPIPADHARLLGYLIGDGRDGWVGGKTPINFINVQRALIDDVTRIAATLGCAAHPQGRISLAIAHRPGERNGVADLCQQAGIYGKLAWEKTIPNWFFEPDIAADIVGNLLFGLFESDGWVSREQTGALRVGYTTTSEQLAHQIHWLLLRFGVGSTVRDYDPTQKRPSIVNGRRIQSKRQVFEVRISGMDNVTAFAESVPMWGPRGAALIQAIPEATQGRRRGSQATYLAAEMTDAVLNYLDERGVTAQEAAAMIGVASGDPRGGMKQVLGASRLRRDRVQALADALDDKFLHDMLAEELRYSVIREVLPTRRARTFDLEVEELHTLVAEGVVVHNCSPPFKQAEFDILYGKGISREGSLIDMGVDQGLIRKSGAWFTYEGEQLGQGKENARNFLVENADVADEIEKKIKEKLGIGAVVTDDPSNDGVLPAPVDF

T1 sequence (P63165 whole entry): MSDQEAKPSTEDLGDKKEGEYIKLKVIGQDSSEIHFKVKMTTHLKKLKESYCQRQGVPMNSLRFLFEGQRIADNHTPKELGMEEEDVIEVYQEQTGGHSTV
T2 sequence (O95136 whole entry): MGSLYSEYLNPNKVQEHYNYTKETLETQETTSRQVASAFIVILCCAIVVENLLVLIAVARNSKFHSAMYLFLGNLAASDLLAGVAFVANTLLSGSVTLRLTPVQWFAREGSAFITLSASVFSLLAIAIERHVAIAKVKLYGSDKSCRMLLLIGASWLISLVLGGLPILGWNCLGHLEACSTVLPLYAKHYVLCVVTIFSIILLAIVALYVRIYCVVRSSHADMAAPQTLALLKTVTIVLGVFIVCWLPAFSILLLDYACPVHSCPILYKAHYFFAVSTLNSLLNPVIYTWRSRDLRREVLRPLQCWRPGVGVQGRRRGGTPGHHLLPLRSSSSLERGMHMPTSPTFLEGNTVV
Sequence of Genome polyprotein (Q2Q167 whole entry): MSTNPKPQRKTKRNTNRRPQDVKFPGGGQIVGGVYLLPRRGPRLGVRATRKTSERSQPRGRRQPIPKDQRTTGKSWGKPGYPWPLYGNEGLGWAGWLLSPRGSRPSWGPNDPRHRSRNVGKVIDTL
Sequence of DNA (cytosine-5)-methyltransferase 1 (P26358 whole entry): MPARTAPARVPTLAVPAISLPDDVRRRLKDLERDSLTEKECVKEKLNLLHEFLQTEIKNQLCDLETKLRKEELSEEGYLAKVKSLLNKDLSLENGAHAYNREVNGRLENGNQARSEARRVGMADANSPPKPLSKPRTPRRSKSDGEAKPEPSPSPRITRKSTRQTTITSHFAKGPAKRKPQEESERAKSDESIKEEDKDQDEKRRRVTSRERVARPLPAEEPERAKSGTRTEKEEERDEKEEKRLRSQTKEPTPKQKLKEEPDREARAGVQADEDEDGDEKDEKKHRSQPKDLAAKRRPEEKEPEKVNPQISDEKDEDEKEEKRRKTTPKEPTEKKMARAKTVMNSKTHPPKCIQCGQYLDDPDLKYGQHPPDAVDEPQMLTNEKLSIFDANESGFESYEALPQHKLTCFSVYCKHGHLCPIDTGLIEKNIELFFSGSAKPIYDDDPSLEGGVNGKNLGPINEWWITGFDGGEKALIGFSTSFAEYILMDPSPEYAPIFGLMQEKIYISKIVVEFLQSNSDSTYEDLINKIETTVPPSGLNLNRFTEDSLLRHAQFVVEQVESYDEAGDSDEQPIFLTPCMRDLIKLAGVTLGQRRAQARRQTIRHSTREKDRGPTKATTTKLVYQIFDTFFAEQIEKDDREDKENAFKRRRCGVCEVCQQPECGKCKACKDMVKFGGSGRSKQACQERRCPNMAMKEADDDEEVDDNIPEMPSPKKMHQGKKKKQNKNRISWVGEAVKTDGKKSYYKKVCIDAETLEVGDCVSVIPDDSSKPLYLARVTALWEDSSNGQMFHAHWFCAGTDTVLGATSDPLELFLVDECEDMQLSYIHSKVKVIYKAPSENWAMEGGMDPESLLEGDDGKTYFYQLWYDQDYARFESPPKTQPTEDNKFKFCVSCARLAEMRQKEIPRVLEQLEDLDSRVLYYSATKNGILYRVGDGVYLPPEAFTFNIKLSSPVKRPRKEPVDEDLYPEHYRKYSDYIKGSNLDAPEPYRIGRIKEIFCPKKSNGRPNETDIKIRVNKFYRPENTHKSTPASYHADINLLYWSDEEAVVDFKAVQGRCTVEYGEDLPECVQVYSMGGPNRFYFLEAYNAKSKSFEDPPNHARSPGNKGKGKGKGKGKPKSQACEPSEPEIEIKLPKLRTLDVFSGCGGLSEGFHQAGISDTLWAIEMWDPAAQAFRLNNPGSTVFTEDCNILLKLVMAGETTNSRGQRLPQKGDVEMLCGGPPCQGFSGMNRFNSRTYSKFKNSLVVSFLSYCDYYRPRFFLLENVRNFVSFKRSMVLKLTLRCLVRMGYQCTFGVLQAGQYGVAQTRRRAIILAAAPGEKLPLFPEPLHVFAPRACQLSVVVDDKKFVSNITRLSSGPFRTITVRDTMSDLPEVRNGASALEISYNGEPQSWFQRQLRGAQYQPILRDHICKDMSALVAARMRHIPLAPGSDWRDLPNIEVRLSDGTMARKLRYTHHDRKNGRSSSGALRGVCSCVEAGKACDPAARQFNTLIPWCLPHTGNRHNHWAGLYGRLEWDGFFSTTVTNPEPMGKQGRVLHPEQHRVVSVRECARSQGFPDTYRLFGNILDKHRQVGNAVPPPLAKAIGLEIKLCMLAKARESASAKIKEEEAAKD
Sequence of Bcl-2-like protein 1 (Q07817 whole entry): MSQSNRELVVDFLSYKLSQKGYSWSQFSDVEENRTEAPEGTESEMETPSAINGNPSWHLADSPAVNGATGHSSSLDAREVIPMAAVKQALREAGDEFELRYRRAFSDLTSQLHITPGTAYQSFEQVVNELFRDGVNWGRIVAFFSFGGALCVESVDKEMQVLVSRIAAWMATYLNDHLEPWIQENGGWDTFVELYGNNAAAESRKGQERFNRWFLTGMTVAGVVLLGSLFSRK
Sequence of E3 ubiquitin-protein ligase Mdm2 (Q00987 whole entry): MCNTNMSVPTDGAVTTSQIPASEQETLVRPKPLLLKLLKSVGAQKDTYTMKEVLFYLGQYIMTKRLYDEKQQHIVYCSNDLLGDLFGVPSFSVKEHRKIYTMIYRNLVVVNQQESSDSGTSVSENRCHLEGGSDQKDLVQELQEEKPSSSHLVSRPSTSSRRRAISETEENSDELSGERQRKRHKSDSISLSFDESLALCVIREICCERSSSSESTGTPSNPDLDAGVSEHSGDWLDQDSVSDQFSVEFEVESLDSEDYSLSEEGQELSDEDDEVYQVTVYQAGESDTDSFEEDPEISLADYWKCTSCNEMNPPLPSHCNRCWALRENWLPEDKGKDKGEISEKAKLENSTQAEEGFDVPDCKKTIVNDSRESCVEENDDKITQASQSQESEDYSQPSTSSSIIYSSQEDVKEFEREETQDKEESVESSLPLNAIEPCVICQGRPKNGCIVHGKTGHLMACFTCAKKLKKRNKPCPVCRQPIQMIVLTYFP
Sequence of Luciferin 4-monooxygenase (P08659 whole entry): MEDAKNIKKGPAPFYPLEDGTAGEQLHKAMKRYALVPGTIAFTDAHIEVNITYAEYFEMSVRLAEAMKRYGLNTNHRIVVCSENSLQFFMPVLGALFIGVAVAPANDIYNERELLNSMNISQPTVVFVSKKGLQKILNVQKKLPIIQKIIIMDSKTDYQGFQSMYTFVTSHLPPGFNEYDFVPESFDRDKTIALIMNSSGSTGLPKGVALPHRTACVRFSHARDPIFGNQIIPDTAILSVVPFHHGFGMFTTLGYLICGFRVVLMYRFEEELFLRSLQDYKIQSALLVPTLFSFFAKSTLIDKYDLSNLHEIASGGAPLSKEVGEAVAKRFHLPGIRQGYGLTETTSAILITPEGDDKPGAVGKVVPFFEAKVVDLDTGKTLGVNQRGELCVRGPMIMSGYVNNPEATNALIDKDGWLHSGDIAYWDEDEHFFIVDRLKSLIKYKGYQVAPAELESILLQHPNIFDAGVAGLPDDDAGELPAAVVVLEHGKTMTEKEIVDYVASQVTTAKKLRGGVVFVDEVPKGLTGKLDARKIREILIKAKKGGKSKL
Sequence of Albumin (P02769 whole entry): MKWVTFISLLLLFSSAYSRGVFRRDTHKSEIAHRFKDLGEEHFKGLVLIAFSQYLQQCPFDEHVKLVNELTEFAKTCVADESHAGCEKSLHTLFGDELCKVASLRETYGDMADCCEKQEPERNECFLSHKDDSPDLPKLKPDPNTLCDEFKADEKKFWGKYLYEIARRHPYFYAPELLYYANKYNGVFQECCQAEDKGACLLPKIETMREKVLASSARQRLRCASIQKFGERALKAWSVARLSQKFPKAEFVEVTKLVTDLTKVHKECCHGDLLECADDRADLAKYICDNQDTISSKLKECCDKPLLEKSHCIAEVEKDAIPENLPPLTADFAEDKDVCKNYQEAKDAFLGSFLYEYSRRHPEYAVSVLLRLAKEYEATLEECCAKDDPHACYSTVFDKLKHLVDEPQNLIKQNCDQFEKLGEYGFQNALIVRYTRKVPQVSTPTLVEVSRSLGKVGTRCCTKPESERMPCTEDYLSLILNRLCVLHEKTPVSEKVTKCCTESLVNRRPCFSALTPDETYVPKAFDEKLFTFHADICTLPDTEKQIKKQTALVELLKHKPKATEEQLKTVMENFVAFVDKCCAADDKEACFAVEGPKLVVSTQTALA
Sequence of Induced myeloid leukemia cell differentiation protein Mcl-1 (Q07820 whole entry): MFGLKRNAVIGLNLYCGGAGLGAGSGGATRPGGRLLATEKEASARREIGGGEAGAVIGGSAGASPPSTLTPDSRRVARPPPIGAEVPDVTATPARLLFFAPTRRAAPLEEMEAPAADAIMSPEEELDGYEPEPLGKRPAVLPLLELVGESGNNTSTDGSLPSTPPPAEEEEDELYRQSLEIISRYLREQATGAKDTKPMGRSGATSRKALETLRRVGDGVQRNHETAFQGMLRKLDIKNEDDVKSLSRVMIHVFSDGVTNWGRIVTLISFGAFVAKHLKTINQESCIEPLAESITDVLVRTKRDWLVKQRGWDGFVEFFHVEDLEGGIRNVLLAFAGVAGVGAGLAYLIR
Sequence of Sphingosine 1-phosphate receptor 1 (P21453 whole entry): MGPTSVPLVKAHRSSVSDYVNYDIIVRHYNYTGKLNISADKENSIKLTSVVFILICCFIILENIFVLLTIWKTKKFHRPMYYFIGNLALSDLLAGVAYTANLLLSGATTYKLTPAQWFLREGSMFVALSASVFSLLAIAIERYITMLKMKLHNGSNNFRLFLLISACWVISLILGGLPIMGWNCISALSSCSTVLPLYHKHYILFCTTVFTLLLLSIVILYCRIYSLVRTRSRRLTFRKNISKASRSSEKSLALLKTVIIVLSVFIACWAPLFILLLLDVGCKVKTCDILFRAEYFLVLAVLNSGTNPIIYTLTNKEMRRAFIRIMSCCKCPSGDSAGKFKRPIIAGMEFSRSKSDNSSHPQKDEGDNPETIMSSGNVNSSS

O=C1COc2ccc(C(=O)COC(=O)/C=C/c3ccc(Br)o3)cc2N1
IC50 [1]: > 4.03 µM (active)
IC50 [2]: 4.57 µM (active)
IC50 [3]: 12.2 µM (active)
IC50 (Albumin): > 94.1 µM (inactive)
IC50 (Bcl-2-like protein 1): > 109 µM (not active)
IC50 (Genome polyprotein): > 49.8 µM (not active)
IC50 [4]: > 66.6 µM (inactive)

COc1ccc(C(c2c[nH]c3ccccc23)c2c[nH]c3ccccc23)cc1O
AC50 [5]: 4.09 µM (active)
EC50 [6]: 31 µM (active)
IC50 [7]: > 69.5 µM (inactive)
EC50 [8]: 558 µM (active)
IC50 [9]: > 69.5 µM (inactive)
EC50 [10]: > 50 µM (not active)

COc1ccccc1N1CCN(C(c2ccc(C)cc2)c2nnnn2C(C)C)CC1 (configuration not stated)
EC50 [11]: 14.5 µM (not active)

O=Cc1ccc(-c2ccc(Cl)cc2Cl)[nH]1
EC50 [12]: > 55.7 µM (not active)
EC50 [13]: > 55.7 µM (not active)
CC50 [14]: > 40 µM (active)
IC50 [15]: > 100 µM (active)

O=C(NCc1ccc(F)cc1)c1cc2ccccn2n1
IC50 [16]: > 100 µM (not active)

COc1ccc(NC(=O)/C(Cl)=C(/Cl)S(=O)(=O)Cc2ccc(C)cc2)cn1
EC50 [17]: < 0.2 µM (active)
EC50 (HT-1080): 18.8 µM (active)
IC50 [18]: 1.48 µM (active)
IC50 [19]: 15.4 µM (not active)
AC50 [20]: 4.27 µM (active)
IC50 [21]: 7.07 µM (active)
IC50 [22]: 0.564 µM (active)
EC50 (Protein RecA): 2.71 µM (active)
